Broadly, the IC50 is the concentration that gives 50% inhibition.

The results in this text go back to patent US7704995B2 (Exelixis, Inc., priority 2003, dated 2010).

Structures are written as SMILES.

This assay concerns the target T1, Chk1 (Homo sapiens, UniProt O14757).
T1 construct: purchased Upstate Biotechnology
T1 sequence (O14757 1-476): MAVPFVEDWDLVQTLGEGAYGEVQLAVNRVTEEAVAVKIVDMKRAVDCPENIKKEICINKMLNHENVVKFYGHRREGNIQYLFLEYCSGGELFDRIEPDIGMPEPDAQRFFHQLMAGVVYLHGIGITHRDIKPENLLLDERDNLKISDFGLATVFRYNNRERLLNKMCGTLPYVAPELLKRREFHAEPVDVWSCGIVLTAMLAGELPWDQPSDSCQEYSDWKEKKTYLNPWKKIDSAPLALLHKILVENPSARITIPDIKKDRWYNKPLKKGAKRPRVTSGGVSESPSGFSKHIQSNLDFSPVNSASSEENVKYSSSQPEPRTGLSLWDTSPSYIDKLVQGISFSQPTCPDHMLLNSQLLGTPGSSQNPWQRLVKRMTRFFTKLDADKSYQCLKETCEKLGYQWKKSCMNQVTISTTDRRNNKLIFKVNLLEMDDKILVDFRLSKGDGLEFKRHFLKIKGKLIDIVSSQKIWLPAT
The assay can be described thus: Chk1 kinase assay: incorporation of γ-33P ATP into immobilized myelin basic protein. The following applies: Table 11; Chk1 only; read-out: Chk1 IC50. Type of assay: biochemical. In outline:
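MBP coated on plates (20 μg/ml) was phosphorylated by Chk1 (10 nM) or Chk2 (20 nM) with γ-33P ATP plus 10 μM (Chk1) or 30 μM (Chk2) unlabeled ATP, 1 h at room temperature, 1% DMSO. Bound radioactivity was counted by scintillation after washing; IC50 or Ki derived from fitted rate data.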
On to `C/C(=N\Nc1ccccc1)c1nc(-c2cccc(C(=O)NCc3ccccc3)c2)cnc1N` [Example 641, 3-{5-amino-6-[(1E)-N-phenylethanehydrazonoyl]pyrazin-2-yl}-N-(phenylmethyl)benzamide], for which the IC50 is 1 to 10 µM. Turning to `C/C(=N\N1CCN(C)CC1)c1nc(-c2cccc(C(=O)NCc3ccccc3)c2)cnc1N` [Example 642, 3-{5-amino-6-[(1E)-N-(4-methylpiperazin-1-yl)ethanimidoyl]pyrazin-2-yl}-N-(phenylmethyl)benzamide], the IC50 was 0.05 to 1 µM. The same measure for `Nc1ncc(-c2cccc(CO)c2)nc1-c1nc(C2CCNC2)n[nH]1` (centres unmarked) [Example 643, {3-[5-amino-6-(3-pyrrolidin-3-yl-1H-1,2,4-triazol-5-yl)pyrazin-2-yl]phenyl}methanol]: 0.05 to 1 µM. In the case of `Nc1ncc(-c2cccc(C(=O)N[C@H]3CCc4ccccc43)c2)nc1C(=O)N[C@H]1CCNC1` [Example 644, 3-amino-6-(3-{[(1S)-2,3-dihydro-1H-inden-1-ylamino]carbonyl}phenyl)-N-[(3S)-pyrrolidin-3-yl]pyrazine-2-carboxamide], the IC50 is less than 0.05 µM.

With `Nc1ncc(-c2cccc(C(=O)N[C@H]3CCc4ccccc43)c2)nc1C(=O)N[C@@H]1CCNC1` [Example 645, 3-amino-6-(3-{[(1S)-2,3-dihydro-1H-inden-1-ylamino]carbonyl}phenyl)-N-[(3R)-pyrrolidin-3-yl]pyrazine-2-carboxamide], the IC50 lay in the range of 0.05 to 1 µM. For the compound `Nc1ncc(-c2cccc(C(=O)N[C@H]3CCc4ccccc43)c2)nc1C(=O)N[C@H]1CCN(C(=O)c2ccco2)C1` [Example 646, 3-amino-6-(3-{[(1S)-2,3-dihydro-1H-inden-1-ylamino]carbonyl}phenyl)-N-[(3S)-1-(furan-2-ylcarbonyl)pyrrolidin-3-yl]pyrazine-2-carboxamide], the IC50 was in the range of 1 to 10 µM. Take `CC(=O)NCCCNC(=O)c1nc(-c2cccc(C(=O)NCc3ccccc3)c2)cnc1N` [Example 647, N-[3-(acetylamino)propyl]-3-amino-6-(3-{[(phenylmethyl)amino]carbonyl}phenyl)pyrazine-2-carboxamide]: the IC50 lay in the range of 1 to 10 µM. Take `Nc1ncc(-c2cccc(C(=O)NCc3ccccc3)c2)nc1C(=O)NCCCNC(=O)c1ccco1` [Example 648, 3-amino-N-{3-[(furan-2-ylcarbonyl)amino]propyl}-6-(3-{[(phenylmethyl)amino]carbonyl}phenyl)pyrazine-2-carboxamide]: the IC50 fell in the range of 1 to 10 µM. For the compound `Nc1ncc(-c2cccc(C(=O)N[C@H]3CCc4ccccc43)c2)nc1C(=O)N[C@H]1CCN(C(=O)c2ccncc2)C1` [Example 649, 3-amino-6-(3-{[(1S)-2,3-dihydro-1H-inden-1-ylamino]carbonyl}phenyl)-N-[(3S)-1-(pyridin-4-ylcarbonyl)pyrrolidin-3-yl]pyrazine-2-carboxamide], the half-inhibitory concentration (IC50) is no less than 10 µM.

On to `Nc1ncc(-c2cccc(C(=O)NCc3ccccc3)c2)nc1C(=O)NCCCNC(=O)c1ccncc1` [Example 650, 3-amino-6-(3-{[(phenylmethyl)amino]carbonyl}phenyl)-N-{3-[(pyridin-4-ylcarbonyl)amino]propyl}pyrazine-2-carboxamide], for which the IC50 lay within 1 to 10 µM. For `Nc1ncc(-c2cccc(C(=O)NCc3ccccc3)c2)nc1C(=O)NCCCNC(=O)c1cnc2ccccc2n1` [Example 651, N-[3-({[3-amino-6-(3-{[(phenylmethyl)amino]carbonyl}phenyl)pyrazin-2-yl]carbonyl}amino)propyl]quinoxaline-2-carboxamide], the IC50 is no less than 10 µM. Regarding `Nc1ncc(-c2cccc(C(=O)NCc3ccccc3)c2)nc1C(=O)NCCCNC(=O)c1ccc(C(F)(F)F)nc1` [Example 652, 3-amino-6-(3-{[(phenylmethyl)amino]carbonyl}phenyl)-N-[3-({[6-(trifluoromethyl)pyridin-3-yl]carbonyl}amino)propyl]pyrazine-2-carboxamide], the IC50 was no less than 10 µM. The same measure for `Nc1ncc(-c2cccc(C(=O)NCc3ccccc3)c2)nc1C(=O)NCCCNS(=O)(=O)c1cccc2cccnc12` [Example 653, 3-amino-6-(3-{[(phenylmethyl)amino]carbonyl}phenyl)-N-{3-[(quinolin-8-ylsulfonyl)amino]propyl}pyrazine-2-carboxamide]: no less than 10 µM; for `Nc1ncc(-c2cccc(C(=O)NCc3ccccc3)c2)nc1C(=O)NCCCNS(=O)(=O)c1ccccn1` [Example 654, 3-amino-6-(3-{[(phenylmethyl)amino]carbonyl}phenyl)-N-{3-[(pyridin-2-ylsulfonyl)amino]propyl}pyrazine-2-carboxamide]: 1 to 10 µM.

`Cc1noc(C)c1NC(=O)NCCCNC(=O)c1nc(-c2cccc(C(=O)NCc3ccccc3)c2)cnc1N` [Example 655, 3-amino-N-[3-({[(3,5-dimethylisoxazol-4-yl)amino]carbonyl}amino)propyl]-6-(3-{[(phenylmethyl)amino]carbonyl}phenyl)pyrazine-2-carboxamide]: the IC50 lay within 1 to 10 µM. For `Cc1nccc(-c2nc(-c3cccc(C(=O)NCc4ccccc4)c3)cnc2N)n1` [Example 656, 3-[5-amino-6-(2-methylpyrimidin-4-yl)pyrazin-2-yl]-N-(phenylmethyl)benzamide], the IC50 is 1 to 10 µM. For the compound `CNc1nccc(-c2nc(-c3cccc(C(=O)NCc4ccccc4)c3)cnc2N)n1` [Example 657, 3-{5-amino-6-[2-(methylamino)pyrimidin-4-yl]pyrazin-2-yl}-N-(phenylmethyl)benzamide], the IC50 was no less than 10 µM. Turning to `Nc1ncc(-c2cccc(C(=O)NCc3ccccc3)c2)nc1C(=O)NCCNC(=O)c1ccncc1` [Example 658, 3-amino-6-(3-{[(phenylmethyl)amino]carbonyl}phenyl)-N-{2-[(pyridin-4-ylcarbonyl)amino]ethyl}pyrazine-2-carboxamide], the IC50 is 1 to 10 µM.

On to `Nc1ncc(-c2cccc(C(=O)NCc3ccccc3)c2)nc1C(=O)NCCNC(=O)c1ccco1` [Example 659, 3-amino-N-{2-[(furan-2-ylcarbonyl)amino]ethyl}-6-(3-{[(phenylmethyl)amino]carbonyl}phenyl)pyrazine-2-carboxamide], for which the 50% inhibitory concentration (IC50) was no less than 10 µM. On to `Nc1ncc(-c2cccc(C(=O)NCc3ccccc3)c2)nc1C(=O)NC1CCCCC1NC(=O)c1nc(-c2cccc(C(=O)NCc3ccccc3)c2)cnc1N` (centres unmarked) [Example 660, N,N′-cyclohexane-1,2-diylbis[3-amino-6-(3-{[(phenylmethyl)amino]carbonyl}phenyl)pyrazine-2-carboxamide]], for which the IC50 was no less than 10 µM. Regarding `CC(=O)NCCNC(=O)c1nc(-c2cccc(C(=O)NCc3ccccc3)c2)cnc1N` [Example 661, N-[2-(acetylamino)ethyl]-3-amino-6-(3-{[(phenylmethyl)amino]carbonyl}phenyl)pyrazine-2-carboxamide], the IC50 lay in the range of 1 to 10 µM.

`Nc1ncc(-c2cccc(C(=O)NCc3ccccc3)c2)nc1C(=O)NCCNS(=O)(=O)c1cccc2cccnc12` [Example 662, 3-amino-6-(3-{[(phenylmethyl)amino]carbonyl}phenyl)-N-{2-[(quinolin-8-ylsulfonyl)amino]ethyl}pyrazine-2-carboxamide]: the IC50 is no less than 10 µM.

As to `Nc1ncc(-c2cccc(C(=O)NCc3ccccc3)c2)nc1C(=O)NCCNC(=O)c1cnc2ccccc2n1` [Example 663, N-[2-({[3-amino-6-(3-{[(phenylmethyl)amino]carbonyl}phenyl)pyrazin-2-yl]carbonyl}amino)ethyl]quinoxaline-2-carboxamide], the IC50 is no less than 10 µM. For `Nc1ncc(-c2cccc(C(=O)NCc3ccccc3)c2)nc1C(=O)NCCNC(=O)c1cccnc1Cl` [Example 664, 3-amino-N-(2-{[(2-chloropyridin-3-yl)carbonyl]amino}ethyl)-6-(3-{[(phenylmethyl)amino]carbonyl}phenyl)pyrazine-2-carboxamide], the concentration for half-maximal inhibition (IC50) lay in the range of 1 to 10 µM.

With `Nc1ncc(-c2cccc(C(=O)NCc3ccccc3)c2)nc1C(=O)NCCNS(=O)(=O)c1ccccn1` [Example 665, 3-amino-6-(3-{[(phenylmethyl)amino]carbonyl}phenyl)-N-{2-[(pyridin-2-ylsulfonyl)amino]ethyl}pyrazine-2-carboxamide], the half-inhibitory concentration (IC50) was no less than 10 µM. For the compound `Cc1noc(C)c1NC(=O)NCCNC(=O)c1nc(-c2cccc(C(=O)NCc3ccccc3)c2)cnc1N` [Example 666, 3-amino-N-[2-({[(3,5-dimethylisoxazol-4-yl)amino]carbonyl}amino)ethyl]-6-(3-{[(phenylmethyl)amino]carbonyl}phenyl)pyrazine-2-carboxamide], the IC50 fell in the range of 1 to 10 µM. Consider `NC(=O)c1nc(-c2cccc(C(=O)NCc3ccccc3)c2)cnc1N` [Example 667, 3-amino-6-(3-{[(phenylmethyl)amino]carbonyl}phenyl)pyrazine-2-carboxamide], for which the IC50 is 0.05 to 1 µM.

Take `N=C(NNc1nccc(C(F)(F)F)n1)c1nc(-c2cccc(C(=O)NCc3ccccc3)c2)cnc1N` [Example 668, 3-[5-amino-6-(imino{2-[4-(trifluoromethyl)pyrimidin-2-yl]hydrazino}methyl)pyrazin-2-yl]-N-(phenylmethyl)benzamide]: the IC50 was 1 to 10 µM.

Take `N=C(NNc1nc2ccccc2s1)c1nc(-c2cccc(C(=O)NCc3ccccc3)c2)cnc1N` [Example 669, 3-{5-amino-6-[[2-(1,3-benzothiazol-2-yl)hydrazino](imino)methyl]pyrazin-2-yl}-N-(phenylmethyl)benzamide]: the IC50 is no less than 10 µM.
